Positions count from the first letter of the chain named.
Legend:
hPAH = target: T1, hPAH (Homo sapiens, UniProt P00439); assay: SPR screening and affinity determination on immobilized hPAH (Biacore T200); type: binding; settings: for Kd: SPR, 25° C., compound 0-500 μM in 5% DMSO, affinities said to be overestimated, relative KD reliable, read-out: KD (μM) ± SER
T1 sequence (P00439 1-452): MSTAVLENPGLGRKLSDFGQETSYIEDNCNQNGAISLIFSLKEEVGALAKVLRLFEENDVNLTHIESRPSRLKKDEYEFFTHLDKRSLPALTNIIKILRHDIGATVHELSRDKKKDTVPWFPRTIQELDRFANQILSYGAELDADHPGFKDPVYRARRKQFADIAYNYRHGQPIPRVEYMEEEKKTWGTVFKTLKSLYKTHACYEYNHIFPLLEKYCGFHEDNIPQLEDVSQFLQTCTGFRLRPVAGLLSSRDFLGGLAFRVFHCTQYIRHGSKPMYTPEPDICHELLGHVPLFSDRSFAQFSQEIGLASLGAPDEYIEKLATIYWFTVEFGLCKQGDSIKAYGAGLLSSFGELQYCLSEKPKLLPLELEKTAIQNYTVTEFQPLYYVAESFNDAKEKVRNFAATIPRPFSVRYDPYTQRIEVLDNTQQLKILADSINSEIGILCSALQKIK
Method: For detailed determination of binding affinity of Compound 53 and derivatives (FIG. 4) SPR was performed on a Biacore T200 (GE Healthcare Life Sciences) at a temperature of 25° C. A hPAH solution at 0.08 μg/μl in a final volume of 200 μl in acetate buffer pH 5.0 was immobilized onto series S sensor chip CM5 by the standard amine coupling procedure at a flow rate of 30 μl/min and PBS-P+ buffer as running buffer aiming for RU 20000. After the coupling reaction the surface of the sensor chip was washed to eliminate unbound species with HBS buffer (0.01 M NaHepes pH 7.4, 0.15 M NaCI) at steady flow of 20 μl/min for 1 hour until the baseline drift was around 0.05 RU/s; note that an early injection of 40 μl dithiothreitol (DTT) 10 mM in HBS allowed for this reduced washing time.
For the screening, compounds were assayed at a concentration of 200 μM, with 5% DMSO in duplicates, including negative controls with 5% DMSO, positive controls, with 200 μM BH2 and solvent correction was also performed. For KD calculations, a compound concentration 0-500 μM (in 5% DMSO) were applied at otherwise analogous experimental design and analyses were performed using Biacore T200 Evaluation Software, version 2.0 (GE Healthcare Life Sciences).
All the responses from the compounds of the screening were subjected to blank subtraction (negative control 5% DMSO), molecular weight adjustment and solvent correction to account for differences in bulk response. Next a cut-off value for the screening was selected based on the response of the positive control of our experiments: RU BH2+3*SD (2.88+3*1.79=8.27). In this manner, from the 11 derivatives of Compound 53 tested (see FIG. 4) we weeded out those compounds with a lower response than 8.27, namely #53.2, #53.9 and #53.11.
In addition and for the rest of the compounds which continued our workflow, binding affinities were determined and the results are shown in the following table. The selected conditions to measure affinity are selected for high throughput measurements, but the affinities are overestimated though the relative KD for the different compounds are reliable.

human wild-type PAH [1] = target: T2, human wild-type PAH (Homo sapiens, UniProt P00439); assay: PAH activity in lysates of HEK293 cells permanently expressing human wild-type PAH; type: cell-based; settings: 1% DMSO, 8 h; for PAH activity-cells (%): 0.04 mg/ml compound, Table 3; for increase of hPAH activity with respect to the control (FIG. 6): average compound concentration 144.9 μM
T2 construct: expressed in transfected cells
T2 sequence (P00439 1-452): T1 sequence (P00439 1-452)
Method: (§1) Human embryonic kidney cells (HEK293; Life Technologies™) permanently expressing WT-hPAH, prepared with the Flp-In system (Life Technologies™) were kindly provided by Per Knappskog, Haukeland University Hospital. About 1 million cells were grown in DMEM medium containing 4.5 g/l glucose, 10% (v/v) fetal calf serum, 0.25 mg/ml gentamycine, 2 mM L-glutamine and 50 μg/ml hygromycin B, and after 24 h medium was changed and the test compounds were added at a concentration of 0.02 mg/ml (1% DMSO). Eight hours later, the cells were harvested, and the pellets frozen in dry ice and stored at −80° C. […] To prepare the cell extracts, the frozen cell pellets were thawed in TBS (+protease inhibitor) buffer and cells were homogenized with 0.1% TX-100, incubated 15 minutes at 4° C. and extracts were clarified by centrifugation 20000 g for 15 min at 4° C. Protein concentrations were normalized using a Direct Detect Spectrometer (Merck Millipore).
The 7 selected compounds as well as the first generation pharmacological chaperones (Compounds III and IV) were further analyzed in the presence and absence of BH2 (200 μM), added as precursor of BH4, to account for additive effects. […]
as §1, with “and the compounds were” for “and the test compounds were”, “concentration of 0.04 mg/ml (1%” for “concentration of 0.02 mg/ml (1%”, “for 15 minutes at 4°” for “for 15 min at 4°”

[2] = target: dihydrofolate reductase (DHFR); settings: read-out: IC50 (DHFR); ChEMBL database; cited from earlier work
human wild-type PAH [3] = target: T2, human wild-type PAH; assay: PAH immunoreactive protein level (Western blot) in HEK293 cells permanently expressing human wild-type PAH; type: cell-based; settings: BH2 200 μM alone, 8 h, 1% DMSO
Method: as §1
The 7 selected compounds as well as the first generation pharmacological chaperones (Compounds III and IV) were further analyzed in the presence and absence of BH2 (200 μM), added as precursor of BH4, to account for additive effects. A higher concentration of compound was also used 0.04 mg/ml (average of 116.7 μM) at otherwise same experimental conditions.

I65T-PAH = target: T3, I65T-PAH (Homo sapiens, UniProt P00439, I65T); assay: PAH protein level and activity in HEK293 EBNA cells transiently expressing PKU mutant I65T; type: cell-based; settings: 200 μM, 24 h, 1% DMSO
T3 construct: expressed in transfected cells; host or cells: HEK293 EBNA, transient, pcDNA3-PAH
T3 sequence (P00439 1-452 I65T): T1 sequence (P00439 1-452) with I65T
Method: (§2) Cell lysates were prepared as indicated above.

R261Q-PAH = target: T4, R261Q-PAH (Homo sapiens, UniProt P00439, R261Q); assay: PAH protein level and activity in HEK293 EBNA cells transiently expressing PKU mutant R261Q; type: cell-based; settings: 200 μM, 24 h, 1% DMSO
T4 construct: expressed in transfected cells; host or cells: HEK293 EBNA, transient, pcDNA3-PAH
T4 sequence (P00439 1-452 R261Q): T1 sequence (P00439 1-452) with R261Q
Method: as §2

| Kd (hPAH) | PAH activity-cells (%) (human wild-type PAH [1]) | SMILES | further results |
| --- | --- | --- | --- |
| 24.7 ± 12.1 µM | 175 ± 23% | Nc1nc(N)c(Cc2ccc3c(c2)OCO3)c(N)n1 [c53.14] | – |
| 76.3 ± 26.4 µM | 146 ± 10% | COc1ccc(C2CC(=O)Nc3nc(N)[nH]c(=O)c32)cc1OC (racemic) [c53.16] | – |
| 6.9 ± 4.9 µM | 119 ± 5% | Nc1ncc(Cc2ccc3c(c2)OCO3)c(N)n1 [c53.7] | – |
| 370 ± 228 µM | – | COc1cc(C(c2c[nH]c3ccccc23)c2c[nH]c3ccccc23)cc(OC)c1OC [c53.5] | – |
| 37.2 ± 23.7 µM | 170 ± 17% | COc1ccc(C2CC(=O)Nc3nc(N)[nH]c(=O)c32)cc1 (racemic) [c53.19] | – |
| 182 ± 32 µM | – | COc1ccc(C2CC(=O)Nc3nc(N)ccc32)c(OC)c1OC (racemic) [c53.33] | – |
| 30.1 ± 6.5 µM | 154 ± 16% | Nc1nc2c(c(=O)[nH]1)C(c1ccc(Cl)cc1)CC(=O)N2 (racemic) [c53.22] | – |
| 103 ± 48.8 µM | 120 ± 12% | CCOc1ccc(Cc2cnc(S)nc2N)cc1 [c53.6] | – |
| 191 ± 20 µM | 155 ± 7% | COc1cc(C2CC(=O)Nc3nc(N)ccc32)cc(Cl)c1OC (racemic) [c53.29] | – |
| 104 ± 14 µM | 130 ± 8% | COc1ccc(Cc2cnc(N)nc2N)cc1OC [c53.1] | – |
| 23.7 ± 5 µM | – | Nc1nc2c(c(=O)[nH]1)C(c1ccc3c(c1)OCO3)CC(=O)N2 (racemic) [c53.35] | – |
| 11.6 ± 1.6 µM | – | Nc1nc2c(c(=O)[nH]1)C(c1cccc(Cl)c1)CC(=O)N2 (racemic) [c53.40] | – |
| 102 ± 11 µM | – | Nc1ccc2c(n1)NC(=O)CC2c1ccc2c(c1)OCCO2 (racemic) [c53.32] | – |
| 62.1 ± 30.7 µM | 109 ± 5% | CSc1nc2c(c(=O)[nH]1)C(c1ccc3c(c1)OCO3)CC(=O)N2 (racemic) [c53.26] | – |
| – | – | COc1cc(Cc2ccc(N)nc2N)cc(OC)c1O [CHEMBL 128600] | IC50 [2]: 10000 µM |
| 11 ± 3.7 µM | 206 ± 10% | Nc1nc2c(c(=O)[nH]1)C(c1ccc3c(c1)OCO3)CC(=O)N2 (racemic) [c53.17] | – |
| 12.6 ± 6.4 µM | – | Nc1nc2c(c(=O)[nH]1)C(c1cccc3ccccc13)CC(=O)N2 (racemic) [c53.41] | – |
| – | – | C[C@H](O)[C@H](O)C1=Nc2c(nc(N)[nH]c2=O)NC1 [BH2] | SPR screening response (blank-subtracted, MW-adjusted, solvent-corrected) (hPAH; 200 μM, 5% DMSO, duplicates, cut-off 8.27): 2.88 RU; stimulating effect on PAH activity (human wild-type PAH [1]; BH2 200 μM alone): 21.7%; stimulating effect on PAH protein (human wild-type PAH [3]): 24.8%; PAH activity, mutant I65T (I65T-PAH): increased; hPAH protein level, mutant I65T (I65T-PAH): increased; PAH activity, mutant R261Q (R261Q-PAH): increased; hPAH protein level, mutant R261Q (R261Q-PAH): increased |
| 55.9 ± 6.7 µM | 125 ± 8% | COc1ccc(C2CC(=O)Nc3nc(N)ccc32)cc1O (racemic) [c53.31] | – |
| 23.2 ± 11.7 µM | 206 ± 5% | COc1cccc(C2CC(=O)Nc3nc(N)[nH]c(=O)c32)c1 (racemic) [c53.20] | – |
| 45.2 ± 9.1 µM | 165 ± 28% | COc1cc(Cc2ccc(N)nc2N)cc(OC)c1OC [c53.4] | increase of hPAH activity with respect to the control (FIG. 6) (human wild-type PAH [1]): around 40% |
| 22.9 ± 2.7 µM | 155 ± 13% | Nc1nc2c(c(=O)[nH]1)C(c1ccc(Cl)cc1Cl)CC(=O)N2 (racemic) [c53.10] | increase of hPAH activity with respect to the control (FIG. 6) (human wild-type PAH [1]): around 40% |
